Patent US20200024278A1, “COMPOSITION COMPRISING ANTIBIOTIC COMPOUND AND AN HETEROCYCLIC COMPOUND AND THEIR USE IN PREVENTING OR TREATING BACTERIAL INFECTIONS” (MUTABILIS, priority 2016, published 2020)
Read-outs that look alike come from different tables or passages of the source.

What was measured:
Assay in all cases: MIC, broth microdilution (CLSI), substance alone or ATB combined with compound at 4 or 8 μg/mL
ECO 190317 = type: cell-based, E. coli; conditions: Escherichia coli; antibiotic alone; ECO 190317; read-out: MIC ATB alone
Method: (§1) Compounds of the present invention were assessed against genotyped bacterial strains alone or in combination with an antibacterial. In the assays, MICs of said compounds or combination of antibiotics with fixed concentrations of said compounds (4 or 8 μg/mL) were determined by the broth microdilution method according to the Clinical Laboratory Standards Institute (CLSI-M7-A7). Briefly, compounds alone according to the invention were prepared in DMSO and spotted (2 μL each) on sterile polystyrene plates (Corning, 3788). Combinations of compounds and antibiotics dilutions were prepared in DMSO and spotted (1 μL each) on sterile polystyrene plates (Corning, 3788). Log phase bacterial suspensions were adjusted to a final density of 5·10^5 CFU/mL in cation-adjusted Mueller-Hinton broth (ca-MHB; Becton-Dickinson and Company) and added to each well (98 μL). Assays including Fosfomycin were supplemented with 25 μg/ml of Glucose-6-phosphate. Microplates were incubated for 16-20 h at 35° C. in ambient air. The MIC of the compounds was defined as the lowest concentration of said compounds that prevented bacterial growth as read by visual inspection. The MIC of ATB at each compound concentration was defined as the lowest concentration of ATB that prevented bacterial growth as read by visual inspection.

PAE 105250 = type: cell-based, P. aeruginosa; conditions: Pseudomonas aeruginosa, PAE 105250
Method: as §1

SPN 49619 = type: cell-based, S. pneumoniae; conditions: SPN 49619; for MIC: Streptococcus pneumoniae
Method: as §1

SAU 29213 = type: cell-based, S. aureus; conditions: SAU 29213
Method: as §1

[1] = antibiotic alone, read-out: MIC ATB alone

## C[C@H]1[C@H](NC(=O)/C(=N\OC(C)(C)C(=O)O)c2csc(N)n2)C(=O)N1S(=O)(=O)O [ATM, Aztreonam, reference compound]
ECO 190317
  MIC: 128 µg/mL
PAE 105250; [1]
  MIC: 8 µg/mL
PAE 105250; substance alone, read-out: MIC
  MIC: 8 µg/mL
SPN 49619; [1]
  MIC: > 64 µg/mL
SPN 49619; substance alone, read-out: MIC
  MIC: > 64 µg/mL

## CCC[C@@H]1C[C@@H](C(=O)N[C@@H]([C@H]2O[C@H](SC)[C@H](O)[C@@H](O)[C@H]2O)[C@H](C)Cl)N(C)C1 [CLI]
SPN 49619; CLI alone
  MIC ATB alone: 0.125 µg/mL
SPN 49619; antibiotic alone
  MIC ATB alone: 0.125 µg/mL
SPN 49619
  MIC ATB combined with Example 1 @8 μg/ml: 0.063 µg/mL
  MIC ATB combined with Example 9 @4 μg/ml: 0.0039 µg/mL

## CC[C@H]1OC(=O)[C@H](C)[C@@H](O[C@H]2C[C@@](C)(OC)[C@@H](O)[C@H](C)O2)[C@H](C)[C@@H](O[C@@H]2O[C@H](C)C[C@H](N(C)C)[C@H]2O)[C@](C)(O)C[C@@H](C)C(=O)[C@H](C)[C@@H](O)[C@]1(C)O [ERY]
SAU 29213; ERY alone
  MIC ATB alone: 1 µg/mL
SAU 29213; antibiotic alone
  MIC ATB alone: 1 µg/mL
SAU 29213
  MIC ATB combined with Example 1 @8 μg/ml: 0.25 µg/mL
  MIC ATB combined with Example 9 @4 μg/ml: <=0.0020 μg/mL
SPN 49619; ERY alone
  MIC ATB alone: 0.063 µg/mL
SPN 49619; antibiotic alone
  MIC ATB alone: 0.063 µg/mL
SPN 49619
  MIC ATB combined with Example 1 @8 μg/ml: 0.063 µg/mL
  MIC ATB combined with Example 9 @4 μg/ml: <0.0020 µg/mL

## CC(=O)NC[C@H]1CN(c2ccc(N3CCOCC3)c(F)c2)C(=O)O1 [LZD]
SAU 29213; LZD alone
  MIC ATB alone: 4 µg/mL
SAU 29213; antibiotic alone
  MIC ATB alone: 4 µg/mL
SAU 29213
  MIC ATB combined with Example 1 @8 μg/ml: 2 µg/mL
  MIC ATB combined with Example 9 @4 μg/ml: <0.0078 µg/mL
SPN 49619; LZD alone
  MIC ATB alone: 1 µg/mL
SPN 49619; antibiotic alone
  MIC ATB alone: 1 µg/mL
SPN 49619
  MIC ATB combined with Example 1 @8 μg/ml: 1 µg/mL
  MIC ATB combined with Example 9 @4 μg/ml: <=0.0078 μg/mL

## CO[C@H]1/C=C/O[C@@]2(C)Oc3c(C)c(O)c4c(O)c(c(/C=N/N5CCN(C)CC5)c(O)c4c3C2=O)NC(=O)/C(C)=C\C=C\[C@H](C)[C@H](O)[C@@H](C)[C@@H](O)[C@@H](C)[C@H](OC(C)=O)[C@@H]1C [RIF]
SAU 29213; RIF alone
  MIC ATB alone: 0.0078 µg/mL
SAU 29213; antibiotic alone
  MIC ATB alone: 0.0078 µg/mL
SAU 29213
  MIC ATB combined with Example 1 @8 μg/ml: 0.0078 µg/mL
  MIC ATB combined with Example 9 @4 μg/ml: 0.002 µg/mL
SPN 49619; RIF alone
  MIC ATB alone: 0.031 µg/mL
SPN 49619; antibiotic alone
  MIC ATB alone: 0.031 µg/mL
SPN 49619
  MIC ATB combined with Example 1 @8 μg/ml: 0.063 µg/mL
  MIC ATB combined with Example 9 @4 μg/ml: 0.00024 µg/mL

## CN[C@H](CC(C)C)C(=O)N[C@H]1C(=O)N[C@@H](CC(N)=O)C(=O)N[C@H]2C(=O)N[C@H]3C(=O)N[C@H](C(=O)N[C@H](C(=O)O)c4cc(O)cc(O)c4-c4cc3ccc4O)[C@H](O)c3ccc(c(Cl)c3)Oc3cc2cc(c3O[C@@H]2O[C@H](CO)[C@@H](O)[C@H](O)[C@H]2O[C@H]2C[C@](C)(N)[C@H](O)[C@H](C)O2)Oc2ccc(cc2Cl)[C@H]1O [VAN]
SAU 29213; antibiotic alone
  MIC ATB alone: 1 µg/mL
SAU 29213
  MIC ATB combined with Example 1 @8 μg/ml: 1 µg/mL
  MIC ATB combined with Example 9 @4 μg/ml: <0.0039 µg/mL
SAU 29213; VAN alone
  MIC ATB alone: 1 µg/mL
SPN 49619; antibiotic alone
  MIC ATB alone: 0.25 µg/mL
SPN 49619
  MIC ATB combined with Example 1 @8 μg/ml: 0.25 µg/mL
  MIC ATB combined with Example 9 @4 μg/ml: <0.0039 µg/mL
SPN 49619; VAN alone
  MIC ATB alone: 0.25 µg/mL
